According to ChEMBL document CHEMBL1151250, “A DNA-damaging oxoaporphine alkaloid from Piper caninum” (J Nat Prod, 2004):

Tests used:
Type in all cases: functional, organism-based
[1] = system: Saccharomyces cerevisiae; assay: Antimicrobial activity against Saccharomyces cerevisiae RS321NpRAD52 in presence of glucose
[2] = system: Saccharomyces cerevisiae; assay: Antimicrobial activity against Saccharomyces cerevisiae RS321NpRAD52 in presence of galactose
[3] = system: Saccharomyces cerevisiae; assay: Antimicrobial activity against Saccharomyces cerevisiae RS321NYCp50 in presence of galactose

## CN1C(=O)C(=O)c2cc3c(c4c2c1cc1ccccc14)OCO3 [CEPHARADIONE A]
[1]
  IC50: 0.05 µg/mL
[2]
  IC50: 115 µg/mL
[3]
  IC50: 0.2 µg/mL
